From PubChem BioAssay (NCI)
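96-well plates; 48 h exposure; 5 concentrations. Endpoints by linear interpolation between flanking doses. Not reached: highest tested concentration assigned. TGI is the concentration that stops growth completely.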

Experiments:
Test in all cases: growth of human tumour cells (NCI), 48 h
HCC-2998 colon = test system: HCC-2998 colon
HCT-15 colon = test system: HCT-15 colon
HS 578T breast = test system: HS 578T breast
HT29 colon = test system: HT29 colon
IGROV1 ovarian = test system: IGROV1 ovarian
K-562 leukemia = test system: K-562 leukemia
LOX IMVI melanoma = test system: LOX IMVI melanoma
M14 melanoma = test system: M14 melanoma
NCI-H460 lung = test system: NCI-H460 lung
SK-MEL-5 melanoma = test system: SK-MEL-5 melanoma

SMILES | TGI (HCC-2998 colon) | TGI (HCT-15 colon) | TGI (HS 578T breast) | TGI (HT29 colon) | TGI (IGROV1 ovarian) | TGI (K-562 leukemia) | TGI (LOX IMVI melanoma) | TGI (M14 melanoma) | TGI (NCI-H460 lung) | TGI (SK-MEL-5 melanoma)
O=C(OCC1OC(n2nc(Cn3nnc(-c4cccnc4)n3)n(-c3cccc4ccccc34)c2=S)C(OC(=O)c2ccccc2)C1OC(=O)c1ccccc1)c1ccccc1 (stereo not given) | > 100 µM | > 100 µM | > 100 µM | > 100 µM | > 100 µM | > 100 µM | > 100 µM | > 100 µM | > 100 µM | > 100 µM
COc1ccc(OC)c2sc(N3C(=O)/C(=C/c4cccc([N+](=O)[O-])c4)N=C3c3ccccc3)nc12 | > 100 µM | > 100 µM | > 100 µM | > 100 µM | > 100 µM | 63.7 µM | 62.1 µM | > 100 µM | > 100 µM | > 100 µM
O=C(O)CN(CC(=O)O)C(C(=O)O)c1ccccc1 (stereo not given) | > 100 µM | > 100 µM | > 100 µM | > 100 µM | > 100 µM | > 100 µM | > 100 µM | > 100 µM | > 100 µM | > 100 µM
CCOC(=O)c1ccc(Nc2nc3ccc(C(F)(F)F)cc3nc2C(=O)OCC)cc1 | > 100 µM | > 100 µM | > 100 µM | > 100 µM | > 100 µM | > 100 µM | > 100 µM | > 100 µM | > 100 µM | > 100 µM
Cc1cc(C)nc(NS(=O)(=O)c2ccc(NC(=O)c3cccc4c(NNc5ccc(S(=O)(=O)N=C(N)N)cc5)c5ccccc5nc34)cc2)n1 | > 50 µM | > 50 µM | > 50 µM | > 50 µM | > 50 µM | > 50 µM | > 50 µM | > 50 µM | > 50 µM | > 50 µM
CCN(CC)CCO/N=C1\CC[C@H]2[C@@H]3CCc4cc(OC)ccc4[C@H]3CC[C@]12C | 3.33 µM | 1.94 µM | 7.36 µM | 2.07 µM | 10.2 µM | 2.53 µM | 2.04 µM | 1.82 µM | 2.15 µM | 3.21 µM
O=c1c2ccccc2sc2ccccc12 | > 100 µM | > 100 µM | > 100 µM | > 100 µM | > 100 µM | > 100 µM | > 100 µM | > 100 µM | > 100 µM | > 100 µM
C[C@H]1[C@H](C)CC[C@]2(C(=O)OC3OC(CO)C(O)C(O)C3O)CC[C@]3(C)C(=CC[C@@H]4[C@@]5(C)C[C@H]6OC(=O)c7cc(O)c(O)c(O)c7-c7c(cc(O)c(O)c7O)C(=O)O[C@@H]6C(CO)(CO)[C@@H]5CC[C@]43C)[C@H]12 (stereo not given in full) | > 100 µM | > 100 µM | > 100 µM | > 56 µM | > 100 µM | > 100 µM | 34.5 µM | > 100 µM | > 100 µM | > 100 µM
O=S1SC(=S)C2C=CC=CC21 (stereo not given) | > 100 µM | > 100 µM | > 100 µM | > 100 µM | > 100 µM | > 100 µM | > 100 µM | > 100 µM | > 100 µM | > 100 µM
CC(C)[Si](OC/C(=C/COC(C)(C)C)[C@H]1CC=C(C(=O)c2ccccc2N2CN(C)C(=O)N(C)C2)C1)(C(C)C)C(C)C | 31 µM | 27.1 µM | 13.2 µM | 18.7 µM | 25.6 µM | > 36.4 µM | 4.06 µM | 27 µM | 28.7 µM | 23.1 µM
COc1nc2c(N3CCCC3)nc(N3CCNCC3)nc2nc1NCc1ccccc1 | 2.79 µM | 3.82 µM | 5.14 µM | 4.65 µM | 8.8 µM | 3.58 µM | 2.9 µM | 3.03 µM | 4.91 µM | 2.88 µM
C(=C\c1ccccc1)/COc1ccccc1C(N1CCOCC1)n1nc2ccccc2n1 (stereo not given) | 34.8 µM | 11.7 µM | 41.2 µM | 10.7 µM | 41.6 µM | 4.26 µM | 13.5 µM | 13.5 µM | > 51.3 µM | 13.8 µM
CCOP(=O)(OCC)OC1CC(n2cc(C)c(=O)n(C)c2=O)OC1CO[Si](C)(C)C(C)(C)C (stereo not given) | > 100 µM | > 100 µM | > 100 µM | > 100 µM | > 100 µM | > 100 µM | > 100 µM | > 100 µM | > 100 µM | > 100 µM
CC(C)C1=C(O)C2=C(C(=O)C1=O)C1(C)CCCC(C)(C)C1C(O)C2OC=O (stereo not given) | 19.2 µM | 16.4 µM | 98.8 µM | 23.2 µM | 22.2 µM | > 100 µM | 11.6 µM | 29.1 µM | 12.7 µM | 18.9 µM
Cc1cc(O)c(-c2cc(O)c(C)cc2O)cc1O | 27.3 µM | > 51.1 µM | > 72.2 µM | > 53.1 µM | 25.9 µM | 4.65 µM | 16.6 µM | 22.9 µM | 39.8 µM | 28.4 µM
COc1ccc([C@H]2C=[N+]([O-])O[C@H](OC3CCCC3)[C@@H]2OC(C)=O)cc1OC | 72.8 µM | 78.5 µM | 78.5 µM | 54.7 µM | 52.4 µM | > 100 µM | 31.3 µM | 44.4 µM | > 100 µM | 29.6 µM
